# Results: PubChem BioAssay (NCI)
#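 Abbreviation: GI50, concentration required for 50% inhibition of growth. TGI: total growth inhibition.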
# Key:
# Assay in all cases: NCI-60 cell line screen, 384-well format
# HT29 colon = test system: HT29 colon
# SF-268 CNS = test system: SF-268 CNS
# OVCAR-4 ovarian = test system: OVCAR-4 ovarian
# SW-620 colon = test system: SW-620 colon
# A549 NSCLC = test system: A549 NSCLC
# UACC-257 melanoma = test system: UACC-257 melanoma
# ACHN renal = test system: ACHN renal
# IGROV1 ovarian = test system: IGROV1 ovarian
# MCF7 breast = test system: MCF7 breast
# HS 578T breast = test system: HS 578T breast
# SF-539 CNS = test system: SF-539 CNS
# OVCAR-8 ovarian = test system: OVCAR-8 ovarian
# CCRF-CEM leukemia = test system: CCRF-CEM leukemia
# MDA-MB-435 melanoma = test system: MDA-MB-435 melanoma
# K-562 leukemia = test system: K-562 leukemia
# HOP-92 NSCLC = test system: HOP-92 NSCLC
# MOLT-4 leukemia = test system: MOLT-4 leukemia
# NCI-H226 lung = test system: NCI-H226 lung
# NCI-H522 lung = test system: NCI-H522 lung
# BT-549 breast = test system: BT-549 breast
# HCT-15 colon = test system: HCT-15 colon
# OVCAR-3 ovarian = test system: OVCAR-3 ovarian
# UACC-62 melanoma = test system: UACC-62 melanoma
# SK-MEL-5 melanoma = test system: SK-MEL-5 melanoma
# 786-0 renal = test system: 786-0 renal
# SK-OV-3 ovarian = test system: SK-OV-3 ovarian
# NCI-H23 lung = test system: NCI-H23 lung
# CAKI-1 renal = test system: CAKI-1 renal
# EKVX NSCLC = test system: EKVX NSCLC
# HCT-116 colon = test system: HCT-116 colon
# SK-MEL-2 melanoma = test system: SK-MEL-2 melanoma
# SN12C renal = test system: SN12C renal
# NCI-H322M lung = test system: NCI-H322M lung
# HCC-2998 colon = test system: HCC-2998 colon
# NCI/ADR-RES ovarian = test system: NCI/ADR-RES ovarian
# UO-31 renal = test system: UO-31 renal
# HL-60(TB) leukemia = test system: HL-60(TB) leukemia
# PC-3 prostate = test system: PC-3 prostate
# COLO 205 colon = test system: COLO 205 colon
# LOX IMVI melanoma = test system: LOX IMVI melanoma
# M14 melanoma = test system: M14 melanoma
# A498 renal = test system: A498 renal
# TK-10 renal = test system: TK-10 renal
# MALME-3M melanoma = test system: MALME-3M melanoma
# NCI-H460 NSCLC = test system: NCI-H460 NSCLC
# RPMI-8226 leukemia = test system: RPMI-8226 leukemia
# SNB-19 CNS = test system: SNB-19 CNS
# U251 glioblastoma = test system: U251 glioblastoma
# OVCAR-5 ovarian = test system: OVCAR-5 ovarian
# SNB-75 CNS = test system: SNB-75 CNS
# KM12 colon = test system: KM12 colon
# SK-MEL-28 melanoma = test system: SK-MEL-28 melanoma
# HOP-62 NSCLC = test system: HOP-62 NSCLC
# DU-145 prostate = test system: DU-145 prostate
# MDA-MB-231 breast = test system: MDA-MB-231 breast
# RXF 393 renal = test system: RXF 393 renal
# T-47D breast = test system: T-47D breast
# SF-295 CNS = test system: SF-295 CNS
# MDA-MB-468 breast = test system: MDA-MB-468 breast
smiles,measurement,setting,value
CCNC(=O)Nc1ccc(-c2nc3c(c(N4CCOC[C@@H]4C)n2)CCN(C2COC2)C3)cc1,GI50,HT29 colon,4.78 µM
same,TGI,HT29 colon,> 100 µM
same,GI50,SF-268 CNS,1.22 µM
same,TGI,SF-268 CNS,> 100 µM
same,GI50,OVCAR-4 ovarian,0.279 µM
same,TGI,OVCAR-4 ovarian,3.45 µM
same,GI50,SW-620 colon,2.28 µM
same,TGI,SW-620 colon,> 100 µM
same,GI50,A549 NSCLC,0.48 µM
same,TGI,A549 NSCLC,> 100 µM
same,GI50,UACC-257 melanoma,1.45 µM
same,TGI,UACC-257 melanoma,14.6 µM
same,GI50,ACHN renal,0.485 µM
same,TGI,ACHN renal,> 100 µM
same,GI50,IGROV1 ovarian,0.147 µM
same,TGI,IGROV1 ovarian,0.885 µM
same,GI50,MCF7 breast,0.131 µM
same,TGI,MCF7 breast,68.6 µM
same,GI50,HS 578T breast,0.116 µM
same,TGI,HS 578T breast,0.596 µM
same,GI50,SF-539 CNS,0.656 µM
same,TGI,SF-539 CNS,> 100 µM
same,GI50,OVCAR-8 ovarian,0.966 µM
same,TGI,OVCAR-8 ovarian,> 100 µM
same,GI50,CCRF-CEM leukemia,0.325 µM
same,TGI,CCRF-CEM leukemia,19.8 µM
same,GI50,MDA-MB-435 melanoma,0.716 µM
same,TGI,MDA-MB-435 melanoma,7.41 µM
same,GI50,K-562 leukemia,0.752 µM
same,TGI,K-562 leukemia,> 100 µM
same,GI50,HOP-92 NSCLC,0.605 µM
same,TGI,HOP-92 NSCLC,8.68 µM
same,GI50,MOLT-4 leukemia,0.207 µM
same,TGI,MOLT-4 leukemia,11.1 µM
same,GI50,NCI-H226 lung,0.207 µM
same,TGI,NCI-H226 lung,3.33 µM
same,GI50,NCI-H522 lung,0.159 µM
same,TGI,NCI-H522 lung,8.13 µM
same,GI50,BT-549 breast,0.22 µM
same,TGI,BT-549 breast,2.56 µM
same,GI50,HCT-15 colon,0.669 µM
same,TGI,HCT-15 colon,> 100 µM
same,GI50,OVCAR-3 ovarian,0.445 µM
same,TGI,OVCAR-3 ovarian,> 100 µM
same,GI50,UACC-62 melanoma,0.366 µM
same,TGI,UACC-62 melanoma,3.81 µM
same,GI50,SK-MEL-5 melanoma,0.221 µM
same,TGI,SK-MEL-5 melanoma,2.26 µM
same,GI50,786-0 renal,1.19 µM
same,TGI,786-0 renal,> 100 µM
same,GI50,SK-OV-3 ovarian,0.189 µM
same,TGI,SK-OV-3 ovarian,5.37 µM
same,GI50,NCI-H23 lung,1.91 µM
same,TGI,NCI-H23 lung,> 100 µM
same,GI50,CAKI-1 renal,0.323 µM
same,TGI,CAKI-1 renal,4.1 µM
same,GI50,EKVX NSCLC,0.381 µM
same,TGI,EKVX NSCLC,9.36 µM
same,GI50,HCT-116 colon,3.28 µM
same,TGI,HCT-116 colon,> 100 µM
same,GI50,SK-MEL-2 melanoma,1.89 µM
same,TGI,SK-MEL-2 melanoma,7.59 µM
same,GI50,SN12C renal,0.31 µM
same,TGI,SN12C renal,> 100 µM
same,GI50,NCI-H322M lung,0.527 µM
same,TGI,NCI-H322M lung,> 100 µM
same,GI50,HCC-2998 colon,0.44 µM
same,TGI,HCC-2998 colon,> 100 µM
same,GI50,NCI/ADR-RES ovarian,11.4 µM
same,TGI,NCI/ADR-RES ovarian,> 100 µM
same,GI50,UO-31 renal,0.654 µM
same,TGI,UO-31 renal,> 100 µM
same,GI50,HL-60(TB) leukemia,5.4 µM
same,TGI,HL-60(TB) leukemia,> 100 µM
same,GI50,PC-3 prostate,0.218 µM
same,TGI,PC-3 prostate,> 100 µM
same,GI50,COLO 205 colon,0.347 µM
same,TGI,COLO 205 colon,> 100 µM
same,GI50,LOX IMVI melanoma,0.658 µM
same,TGI,LOX IMVI melanoma,13.8 µM
same,GI50,M14 melanoma,0.416 µM
same,TGI,M14 melanoma,> 100 µM
same,GI50,A498 renal,0.0938 µM
same,TGI,A498 renal,1.9 µM
same,GI50,TK-10 renal,0.39 µM
same,TGI,TK-10 renal,5.65 µM
same,GI50,MALME-3M melanoma,0.167 µM
same,TGI,MALME-3M melanoma,3.02 µM
same,GI50,NCI-H460 NSCLC,0.108 µM
same,TGI,NCI-H460 NSCLC,> 100 µM
same,GI50,RPMI-8226 leukemia,0.0387 µM
same,TGI,RPMI-8226 leukemia,0.276 µM
same,GI50,SNB-19 CNS,2.82 µM
same,TGI,SNB-19 CNS,> 100 µM
same,GI50,U251 glioblastoma,1.35 µM
same,TGI,U251 glioblastoma,> 100 µM
same,GI50,OVCAR-5 ovarian,1.04 µM
same,TGI,OVCAR-5 ovarian,> 100 µM
same,GI50,SNB-75 CNS,0.0462 µM
same,TGI,SNB-75 CNS,0.98 µM
same,GI50,KM12 colon,0.479 µM
same,TGI,KM12 colon,> 100 µM
same,GI50,SK-MEL-28 melanoma,0.443 µM
same,TGI,SK-MEL-28 melanoma,28 µM
same,GI50,HOP-62 NSCLC,0.494 µM
same,TGI,HOP-62 NSCLC,11 µM
same,GI50,DU-145 prostate,0.64 µM
same,TGI,DU-145 prostate,> 100 µM
same,GI50,MDA-MB-231 breast,0.476 µM
same,TGI,MDA-MB-231 breast,> 100 µM
same,GI50,RXF 393 renal,0.212 µM
same,TGI,RXF 393 renal,2.13 µM
same,GI50,T-47D breast,0.0263 µM
same,TGI,T-47D breast,0.437 µM
same,GI50,SF-295 CNS,0.305 µM
same,TGI,SF-295 CNS,2.54 µM
same,GI50,MDA-MB-468 breast,0.173 µM
same,TGI,MDA-MB-468 breast,2.38 µM
